Reference: patent US20070298025A1, “Pharmaceutical Compositions and Methods for Reducing Body Fat” (Obe Therapy Biotechnology S.A.S., priority 2004, published 2007)
Where a name gives a salt, the structure may show the parent alone. Non-standard residues stand in square brackets, D forms with d. Residues, ends and D or L forms follow the SMILES beside them. *: point of attachment. Boc = CC(C)(C)OC(=O)*; CH2Cl = ClC*

Columns and labels:
enteropeptidase [1] = biological target: T1, enteropeptidase (Homo sapiens, UniProt P98073); assay: Trypsinogen activation assay; assay type: biochemical; parameters: purchased R&D Systems 1585-SE
Source text: In vitro Testing: the Trypsinogen Activation Assay
Material: The following component, used in the present trypsinogen activation assay may be purchased as follows:
In the first step, the enteropeptidase cleaves the trypsinogen in its active form, trypsin. Trypsin, in the second step, cleaves the N-CBZ-Gly-Pro-Arg-p-nitroanilide (pNA) into N-CBZ-Gly-Pro-Arg and p-nitroanilide (pNA). The amount of pNA can be measured at 405 nm, and reflects the amount of trypsin cleaved and thus the inhibitory activity of the molecules tested on the enteropeptidase.
In the first step, the following mix was prepared (50 μl final) • recombinant human enteropeptidase: 1.5 nM final • sodium citrate: […] • candidate molecule or control: 1 μl • trypsinogen: 2.5 μM final
The mix was incubated at room temperature during 10 minutes and the reaction was stopped with 5 μl of HCl 0.4 M.
In the second step, the previous mix was then incubated with a 50 μl mix comprising 1 mM of N-CBZ-Gly-Pro-Arg-pNA, Tris Hcl pH 8.4 20 mM final and NaCl-150 mM final, at room temperature for 10 minutes. The absorbance of the resulting mix was read at 405 nm.
Results are expressed as the percentage of inhibition, which is the absorbance at 405 nm of the reaction in the presence of different concentrations of inhibitor as compared to the value obtained in the absence of inhibitor.

pepsin = pepsin (Homo sapiens, UniProt P0DJD8); conditions: read-out: Ki (affinity for pepsin); cited from earlier work
[2] = system: people having Type II diabetes; assay: Treating Type II diabetes: blood glucose study; assay type: in vivo, human; conditions: versus control group (placebo)
Description: Type II diabetes is a disease in which the amount of insulin produced by the pancreas is inadequate to meet the body's needs and thus glucose, which is metabolized by insulin is not taken up normally from the blood into the body tissues. Therefore glucose in the blood rises. Type II diabetes is detected by a fasting glucose level of greater than 126 mg/dL measured on two occasions or one blood glucose level of greater than 200 mg/dL on one occasion or two random blood glucose levels of more than 200 mg/dL. Also a glucose tolerance test having a glucose level of more than 200 mg/dL 2 hours after drinking 75 grams of glucose also qualifies an individual as having Type II diabetes.
Two groups of 10 people are used in this study. The first given a treatment of ritonavir at 600 mg taken twice a day, while the other 10 people were given a placebo. The treatment continued for 2 months.
(§1) The study group is advised to follow their normal routine concerning their eating habits and exercise patterns, which is recorded 1 month prior to this study and throughout this study.
At the end of two months blood glucose levels and a glucose tolerance test are tested with all of the people in the study.
(§2) The same study in Example 6 is conducted with a larger group of people having Type II diabetes. Each of the treated groups 1 to 7 is given as amprenavir, atazanavir, indinavir, lopinavir, fosamprenavir, nelfinavir or saquinavir in the same amounts as set forth in Example 3. The control group is given a placebo. At the end of two months another fasting (9-12 hours) lipid profile is taken.

[3] = system: persons having hyperlipidemia; assay: Treating hyperlipidemia: fasting lipid profile study; assay type: in vivo, human; conditions: fasting (9-12 hours), versus control group
Description: Hyperlipidemia is an elevation of lipids in the bloodstream. These lipids include, for example, cholesterol and triglycerides. General hyperlipidemia is determined by the results of a lipid profile. The lipid profile includes LDL, HDL, triglycerides and total cholesterol measurements. A group of persons having hyperlipidemia with a total cholesterol level greater than 240 mg/dl, an HDL (high density lipid) of below 40 mg/ml, a triglyceride level of greater than 200 mg/dl and an LDL (low density lipid) level of over 160 mg/ml, after a 9 to 12 hours of fasting, are chosen for this study.
10 people are given a treatment of ritonavir at 600 mg taken twice a day. The other 10 people are given a placebo. The treatment continued for 2 months.
as §1
At the end of two months another fasting (9-12 hours) lipid profile is taken.
as §2, with “8” for “6”, “hyperlipidemia.” for “Type II diabetes.”

enteropeptidase [4] = biological target: T1, enteropeptidase; assay: Test for enteropeptidase only (data not shown); assay type: biochemical
[5] = biological target: Recombinant human enteropeptidase (human, UniProt P98073 41-1019, limits assumed); assay: cell-based or functional assay
[6] = Example 7, groups 1 to 7, two months
[7] = Example 9, groups 1 to 7, two months

Chain of Recombinant human enteropeptidase (P98073 41-1019 E134Q/P732S limits assumed): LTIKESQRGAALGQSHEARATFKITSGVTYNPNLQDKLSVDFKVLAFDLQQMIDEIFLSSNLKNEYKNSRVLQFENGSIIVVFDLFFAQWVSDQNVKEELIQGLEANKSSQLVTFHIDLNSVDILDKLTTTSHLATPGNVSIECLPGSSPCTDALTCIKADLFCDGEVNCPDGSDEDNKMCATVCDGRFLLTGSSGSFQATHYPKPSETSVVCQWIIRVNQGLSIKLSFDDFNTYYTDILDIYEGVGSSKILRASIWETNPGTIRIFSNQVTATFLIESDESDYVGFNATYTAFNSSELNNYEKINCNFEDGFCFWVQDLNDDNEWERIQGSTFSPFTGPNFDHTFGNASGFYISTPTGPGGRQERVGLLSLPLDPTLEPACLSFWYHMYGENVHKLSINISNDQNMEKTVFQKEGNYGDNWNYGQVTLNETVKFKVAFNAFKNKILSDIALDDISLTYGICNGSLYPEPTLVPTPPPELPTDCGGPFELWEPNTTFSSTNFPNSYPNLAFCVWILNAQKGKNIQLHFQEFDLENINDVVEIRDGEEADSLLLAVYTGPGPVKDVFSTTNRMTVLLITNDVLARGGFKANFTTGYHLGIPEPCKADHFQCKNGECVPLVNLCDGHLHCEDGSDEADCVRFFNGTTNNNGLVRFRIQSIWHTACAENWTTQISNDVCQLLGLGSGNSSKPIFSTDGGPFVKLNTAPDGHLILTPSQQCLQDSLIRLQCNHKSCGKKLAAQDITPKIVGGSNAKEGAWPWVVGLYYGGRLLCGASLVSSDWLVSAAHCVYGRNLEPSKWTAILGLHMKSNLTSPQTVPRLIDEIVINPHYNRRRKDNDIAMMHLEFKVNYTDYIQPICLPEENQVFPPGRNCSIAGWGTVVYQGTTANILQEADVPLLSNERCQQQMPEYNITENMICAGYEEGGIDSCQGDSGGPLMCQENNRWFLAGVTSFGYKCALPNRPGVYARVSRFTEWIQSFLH
T1 sequence (P98073 whole entry): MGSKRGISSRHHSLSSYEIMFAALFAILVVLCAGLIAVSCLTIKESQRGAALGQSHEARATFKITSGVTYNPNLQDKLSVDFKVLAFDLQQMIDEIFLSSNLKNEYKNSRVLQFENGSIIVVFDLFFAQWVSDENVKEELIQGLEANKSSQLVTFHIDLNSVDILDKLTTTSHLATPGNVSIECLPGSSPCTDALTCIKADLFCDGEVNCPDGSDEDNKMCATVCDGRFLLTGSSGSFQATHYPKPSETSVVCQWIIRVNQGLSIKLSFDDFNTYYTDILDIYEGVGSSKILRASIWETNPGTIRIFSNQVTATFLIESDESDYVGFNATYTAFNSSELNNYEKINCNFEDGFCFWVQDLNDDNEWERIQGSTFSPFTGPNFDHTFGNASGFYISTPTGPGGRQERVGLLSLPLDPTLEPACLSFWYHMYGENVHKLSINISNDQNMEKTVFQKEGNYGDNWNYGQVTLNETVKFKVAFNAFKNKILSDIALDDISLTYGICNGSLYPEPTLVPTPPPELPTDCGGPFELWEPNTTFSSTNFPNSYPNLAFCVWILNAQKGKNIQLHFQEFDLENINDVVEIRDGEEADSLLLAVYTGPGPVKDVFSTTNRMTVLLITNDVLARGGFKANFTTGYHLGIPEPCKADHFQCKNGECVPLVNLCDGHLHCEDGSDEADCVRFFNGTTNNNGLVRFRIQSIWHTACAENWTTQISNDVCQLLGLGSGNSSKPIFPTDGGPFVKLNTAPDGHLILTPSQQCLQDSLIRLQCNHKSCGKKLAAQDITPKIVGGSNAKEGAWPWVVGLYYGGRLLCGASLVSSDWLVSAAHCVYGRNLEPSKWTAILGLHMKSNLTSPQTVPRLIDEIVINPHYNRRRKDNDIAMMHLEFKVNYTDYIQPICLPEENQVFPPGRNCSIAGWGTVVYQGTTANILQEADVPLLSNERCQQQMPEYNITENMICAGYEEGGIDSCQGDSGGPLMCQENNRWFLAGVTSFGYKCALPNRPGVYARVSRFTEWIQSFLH
Chain of pepsin (P0DJD8 63-388): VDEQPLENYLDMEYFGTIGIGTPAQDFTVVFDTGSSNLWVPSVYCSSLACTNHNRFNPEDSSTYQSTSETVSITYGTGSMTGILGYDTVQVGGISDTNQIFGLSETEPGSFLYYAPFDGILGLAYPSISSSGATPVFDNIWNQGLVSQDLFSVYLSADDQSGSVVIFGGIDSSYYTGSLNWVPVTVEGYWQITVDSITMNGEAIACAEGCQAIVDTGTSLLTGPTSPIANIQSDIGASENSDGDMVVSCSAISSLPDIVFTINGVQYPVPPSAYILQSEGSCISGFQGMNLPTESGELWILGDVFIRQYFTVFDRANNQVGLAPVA

| Molecule | levels of blood glucose [2, 6] | levels of HDL [3, 7] | levels of LDL [3, 7] | levels of cholesterol [3, 7] | levels of triglycerides [3, 7] | also measured |
| --- | --- | --- | --- | --- | --- | --- |
| BOC-Ala-Glu-Val-Asp-Aldehyde (Boc-AEVD-aldehyde; SMILES CC(C)[C@H](NC(=O)[C@H](CCC(=O)O)NC(=O)[C@H](C)NC(=O)OC(C)(C)C)C(=O)N[C@H](C=O)CC(=O)O) [negative control, Bachem N-1755] | – | – | – | – | – | inhibition (enteropeptidase [1]; tested at 10 μm): no inhibition |
| CC(C)[C@H](NC(=O)[C@H](Cc1ccccc1)C[C@H](O)[C@H](Cc1ccccc1)NC(=O)OC(C)(C)C)C(=O)N[C@@H](Cc1ccccc1)C(=O)N1CCOCC1 [CGP 53437] | – | – | – | – | – | Ki (pepsin): 8 nM |
| COC(=O)N[C@H](C(=O)N[C@@H](Cc1ccccc1)[C@@H](O)CN(Cc1ccc(-c2ccccn2)cc1)NC(=O)[C@@H](NC(=O)OC)C(C)(C)C)C(C)(C)C [atazanavir] | significantly reduced | higher | significantly reduced | significantly reduced | significantly reduced | – |
| CC(C)(C)NC(=O)[C@@H]1C[C@@H]2CCCC[C@@H]2CN1C[C@@H](O)[C@H](Cc1ccccc1)NC(=O)[C@H](CC(N)=O)NC(=O)c1ccc2ccccc2n1 [saquinavir] | significantly reduced | higher | significantly reduced | significantly reduced | significantly reduced | – |
| Cc1c(O)cccc1C(=O)N[C@@H](CSc1ccccc1)[C@H](O)CN1C[C@H]2CCCC[C@H]2C[C@H]1C(=O)NC(C)(C)C [nelfinavir] | significantly reduced | higher | significantly reduced | significantly reduced | significantly reduced | – |
| CC(C)CN(C[C@@H](OP(=O)(O)O)[C@H](Cc1ccccc1)NC(=O)O[C@H]1CCOC1)S(=O)(=O)c1ccc(N)cc1 [fosamprenavir] | significantly reduced | higher | significantly reduced | significantly reduced | significantly reduced | – |
| Cc1cccc(C)c1OCC(=O)N[C@@H](Cc1ccccc1)[C@@H](O)C[C@H](Cc1ccccc1)NC(=O)[C@H](C(C)C)N1CCCNC1=O [lopinavir] | significantly reduced | higher | significantly reduced | significantly reduced | significantly reduced | – |
| CC(=O)N[C@@H](CC(C)C)C(=O)N[C@H](C(=O)N[C@H](C=O)CCCCN)C(C)C [AC-Leu-Val-Lys-Aldhehyde] (Ac-Leu-Val-Lys-aldehyde) | – | – | – | – | – | IC50 (enteropeptidase [1]; trypsinogen activation assay, FIG. 6, enteropeptidase 1.5 nM, trypsinogen 2.5 μM): ~3000 nM |
| CC(C)c1nc(CN(C)C(=O)N[C@H](C(=O)N[C@@H](Cc2ccccc2)C[C@H](O)[C@H](Cc2ccccc2)NC(=O)OCc2cncs2)C(C)C)cs1 [ritonavir] | – | – | – | – | – | levels of blood glucose ([2]; 600 mg twice a day, 2 months): significantly reduced; levels of HDL ([3]; 600 mg twice a day, 2 months): higher; levels of LDL ([3]; 600 mg twice a day, 2 months): significantly reduced; levels of total cholesterol ([3]; 600 mg twice a day, 2 months): significantly reduced; levels of triglycerides ([3]; 600 mg twice a day, 2 months): significantly reduced |
| Z-Asp-Glu-Val-Asp-chloromethylketone | – | – | – | – | – | IC50 when tested for enteropeptidase only, compared with the ones reported in FIG. 6 (enteropeptidase [4]): higher; inhibition (enteropeptidase [1]; tested at 50 μm): no inhibition |
| N=C(N)NCCC[C@H](NC(=O)[C@@H]1CCCN1C(=O)[C@H](N)Cc1ccc(O)cc1)C(=O)CCl [H-D-Tyr-Pro-Arg-chloromethylketone trifluororoacetate salt] (H-[dY]-Pro-Arg-CH2Cl) | – | – | – | – | – | IC50 when tested for enteropeptidase only, compared with the ones reported in FIG. 6 (enteropeptidase [4]): higher |
| CC(C)(C)NC(=O)[C@@H]1CN(Cc2cccnc2)CCN1C[C@@H](O)C[C@@H](Cc1ccccc1)C(=O)N[C@H]1c2ccccc2C[C@H]1O [indinavir] | significantly reduced | higher | significantly reduced | significantly reduced | significantly reduced | – |
| AC-Leu-Val-Lys-Aldhehyde (peptide) | – | – | – | – | – | IC50 in the trypsinogen activation assay (percentage of inhibition, absorbance of pNA at 405 nM) [5]: 3 µM |
| CC(C)CN(C[C@@H](O)[C@H](Cc1ccccc1)NC(=O)O[C@H]1CCOC1)S(=O)(=O)c1ccc(N)cc1 [amprenavir] | significantly reduced | higher | significantly reduced | significantly reduced | significantly reduced | – |
| H-[dY]-Pro-Arg-CH2Cl (also: trifluoroacetate salt) [H-D-Tyr-Pro-Arg-chloromethylketone trifluororoacetate salt] | – | – | – | – | – | IC50 in the trypsinogen activation assay (percentage of inhibition, absorbance of pNA at 405 nM) [5]: ~35 nM |
| {1,5‑dansyl}-Glu-Gly-Arg-CH2Cl (also: dihydrochloride salt) [1,5-Dansyl-Glu-Gly-Arg-chloromethylketone dihydrochloride] | – | – | – | – | – | IC50 in the trypsinogen activation assay (percentage of inhibition, absorbance of pNA at 405 nM) [5]: ~24.7 nM |
